In PubChem BioAssay (NCI):
“And” between values parts separate entries of the source, which are not always exact repeats. Equal values may be shown once.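 All cell lines were grown in 96-well plates and treated with compound for 48 hours. Abbreviation: GI50, concentration required for 50% inhibition of growth. At the TGI there is no net growth.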

What was measured:
Experiment in all cases: DTP human tumour cell line panel, 48 h
PC-3 prostate = tested on: PC-3 prostate
HOP-62 NSCLC = tested on: HOP-62 NSCLC
SR leukemia = tested on: SR leukemia
KM12 colon = tested on: KM12 colon
A549 NSCLC = tested on: A549 NSCLC
UO-31 renal = tested on: UO-31 renal
MCF7 breast = tested on: MCF7 breast
MOLT-4 leukemia = tested on: MOLT-4 leukemia
COLO 205 colon = tested on: COLO 205 colon
NCI/ADR-RES ovarian = tested on: NCI/ADR-RES ovarian

`COc1ccc(-c2csc(NC(=O)CN3CCN(c4cc5c(cc4F)c(=O)c(C(=O)O)cn5C4CC4)CC3)n2)cc1` was tested, and the GI50 (PC-3 prostate) was 3.82 µM, the TGI (PC-3 prostate) was greater than 100 µM and the GI50 (HOP-62 NSCLC) was 3.59 µM. The TGI (HOP-62 NSCLC) was 26.1 µM, the GI50 (SR leukemia) was 2.96 µM and the TGI (SR leukemia) was greater than 100 µM. The GI50 (KM12 colon) was 3.37 µM, the TGI (KM12 colon) was greater than 100 µM and the GI50 (A549 NSCLC) was 3.47 µM. It also gave a TGI (A549 NSCLC) greater than 100 µM, a GI50 (UO-31 renal) of 3.37 µM and a TGI (UO-31 renal) greater than 100 µM. It also gave a GI50 (MCF7 breast) of 2.84 µM and a TGI (MCF7 breast) greater than 100 µM.
For `O=c1c2cc3c(cc2c2cccc4c2n1CCC4)OCO3`, the TGI (HOP-62 NSCLC) was greater than 100 µM, the TGI (SR leukemia) was 91.3 µM and the TGI (KM12 colon) was greater than 100 µM. It also gave a TGI (MOLT-4 leukemia) greater than 100 µM, a TGI (A549 NSCLC) greater than 100 µM and a TGI (UO-31 renal) greater than 100 µM. The TGI (COLO 205 colon) was greater than 100 µM.
Compound `C=C(C(=C)P(=S)(C(C)C)C(C)C)P(=S)(C(C)C)C(C)C` has a TGI (HOP-62 NSCLC) greater than 100 µM, a TGI (SR leukemia) greater than 100 µM and a TGI (KM12 colon) greater than 100 µM. For the same compound, the TGI (MOLT-4 leukemia) was greater than 100 µM, the TGI (A549 NSCLC) was greater than 100 µM and the TGI (UO-31 renal) was greater than 100 µM. The TGI (COLO 205 colon) was greater than 100 µM.
For `O=c1[nH]cnc2c(COCCO)c[nH]c12`, the TGI (HOP-62 NSCLC) was greater than 100 µM, the TGI (SR leukemia) was greater than 100 µM and the TGI (KM12 colon) was greater than 100 µM. It also gave a TGI (MOLT-4 leukemia) greater than 100 µM, a TGI (UO-31 renal) greater than 100 µM and a TGI (COLO 205 colon) greater than 100 µM.
`COc1ccc2c(c1)-c1nn(CCCN(C)C)c3ccc([N+](=O)[O-])c(c13)N2` was tested, and the GI50 (PC-3 prostate) was 0.112 µM and 0.343 µM, the TGI (PC-3 prostate) was 2.75 µM and 3.93 µM and the GI50 (HOP-62 NSCLC) was 0.104 µM and 0.686 µM. For the same compound, the TGI (HOP-62 NSCLC) was 1.06 µM and 5.26 µM, the GI50 (SR leukemia) was 1.27 µM and the GI50 (KM12 colon) was 0.194 µM and 0.43 µM. The TGI (KM12 colon) was 2.54 µM and 2.58 µM, the GI50 (A549 NSCLC) was 0.164 µM and 0.368 µM and the TGI (A549 NSCLC) was 2.51 µM and 2.28 µM. For the same compound, the GI50 (UO-31 renal) was 0.165 µM and 0.435 µM, the TGI (UO-31 renal) was 1.9 µM and 6.16 µM and the TGI (NCI/ADR-RES ovarian) was 2.93 µM and 1.42 µM. The TGI (MCF7 breast) was 2.7 µM and 10.9 µM, the GI50 (COLO 205 colon) was 0.0962 µM and 0.276 µM and the TGI (COLO 205 colon) was 0.913 µM and 3.75 µM.
`O=c1cccc(-c2cccc(=O)[nH]2)[nH]1` was tested, and the TGI (KM12 colon) was greater than 100 µM, the TGI (MOLT-4 leukemia) was greater than 100 µM and the TGI (A549 NSCLC) was greater than 100 µM. It also gave a TGI (UO-31 renal) greater than 100 µM and a TGI (COLO 205 colon) greater than 100 µM.
With `O=Cc1ccc(-c2ccc(-c3nc4ccccc4s3)cc2)s1` the GI50 (PC-3 prostate) was 28.7 µM, the TGI (PC-3 prostate) was greater than 100 µM and the GI50 (HOP-62 NSCLC) was greater than 100 µM. It also gave a TGI (HOP-62 NSCLC) greater than 100 µM, a GI50 (KM12 colon) of 38.4 µM and a TGI (KM12 colon) greater than 100 µM. For the same compound, the GI50 (MOLT-4 leukemia) was 51.5 µM, the TGI (MOLT-4 leukemia) was greater than 100 µM and the GI50 (A549 NSCLC) was greater than 100 µM. It also gave a TGI (A549 NSCLC) greater than 100 µM, a GI50 (UO-31 renal) of 42.7 µM and a TGI (UO-31 renal) greater than 100 µM. For the same compound, the GI50 (NCI/ADR-RES ovarian) was 40.8 µM, the TGI (NCI/ADR-RES ovarian) was greater than 100 µM and the GI50 (MCF7 breast) was 48.1 µM. It also gave a TGI (MCF7 breast) greater than 100 µM, a GI50 (COLO 205 colon) greater than 100 µM and a TGI (COLO 205 colon) greater than 100 µM.
In the case of `NC(=O)CC(N=Cc1nc(-c2ccccc2)oc1O)C(=O)O` (stereo not drawn), the TGI (HOP-62 NSCLC) is reported as greater than 100 µM, the TGI (KM12 colon) is reported as greater than 100 µM and the TGI (A549 NSCLC) is reported as greater than 100 µM. For the same compound, the TGI (UO-31 renal) was greater than 100 µM and the TGI (COLO 205 colon) was greater than 100 µM.
Compound `CC1OC(CC(=O)O)CC2=C1C(=O)c1c(O)cccc1C2=O` (stereo not drawn) has a TGI (PC-3 prostate) of 0.817 µM, a TGI (HOP-62 NSCLC) of 2.94 µM and a TGI (SR leukemia) of 0.159 µM. For the same compound, the TGI (KM12 colon) was 3.49 µM, the TGI (MOLT-4 leukemia) was 0.115 µM and the TGI (A549 NSCLC) was 7.96 µM. For the same compound, the TGI (UO-31 renal) was 1.07 µM, the TGI (MCF7 breast) was 0.368 µM and the TGI (COLO 205 colon) was 0.169 µM.
Work on `O=C(NCCCl)SCCO` yielded a TGI (HOP-62 NSCLC) greater than 100 µM, a TGI (SR leukemia) greater than 100 µM and a TGI (KM12 colon) greater than 100 µM. It also gave a TGI (MOLT-4 leukemia) greater than 100 µM, a TGI (A549 NSCLC) greater than 100 µM and a TGI (UO-31 renal) greater than 100 µM. It also gave a TGI (COLO 205 colon) greater than 100 µM.
